In ChEMBL document CHEMBL1201862, “PubChem BioAssay data set” (2004):
Where a name gives a salt, the structure may show the parent alone. Activity calls are given as the source filed them.

Experiments:
Kallikrein-7 = Kallikrein-7 (Homo sapiens, UniProt P49862); assay: Fluorescence Intensity-based biochemical primary high throughput dose response assay to identify activators of kallikrein-7 (K7) zymogen.
[1] = CRF-BP/CRF-R2 complex antagonists, dose response, cell-based, uHTS hits, 384-well (AID 651639); assay type: functional, Homo sapiens; settings: read-out: IC50_Mean
[2] = biological target: T1, Corticotropin-releasing factor receptor 2/Corticotropin-releasing factor-binding protein (Homo sapiens, UniProt P24387+Q13324); assay: Dose Response confirmation of uHTS hits for small molecule antagonists of the CRF-binding protein and CRF-R2 receptor complex.; assay type: functional; settings: read-out: IC50_Mean
T1 sequence (Q13324 whole entry): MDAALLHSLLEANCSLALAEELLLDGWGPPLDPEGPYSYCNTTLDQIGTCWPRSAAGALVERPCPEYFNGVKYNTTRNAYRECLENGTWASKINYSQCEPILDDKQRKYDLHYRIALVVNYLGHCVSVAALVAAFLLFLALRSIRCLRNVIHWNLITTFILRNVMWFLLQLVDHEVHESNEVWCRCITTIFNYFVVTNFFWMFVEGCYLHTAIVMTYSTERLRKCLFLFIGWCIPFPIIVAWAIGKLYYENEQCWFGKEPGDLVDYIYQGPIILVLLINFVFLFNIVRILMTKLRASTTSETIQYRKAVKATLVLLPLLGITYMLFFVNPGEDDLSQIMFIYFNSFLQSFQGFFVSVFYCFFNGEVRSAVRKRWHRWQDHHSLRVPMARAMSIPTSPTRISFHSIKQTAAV
T1 sequence (P24387 whole entry): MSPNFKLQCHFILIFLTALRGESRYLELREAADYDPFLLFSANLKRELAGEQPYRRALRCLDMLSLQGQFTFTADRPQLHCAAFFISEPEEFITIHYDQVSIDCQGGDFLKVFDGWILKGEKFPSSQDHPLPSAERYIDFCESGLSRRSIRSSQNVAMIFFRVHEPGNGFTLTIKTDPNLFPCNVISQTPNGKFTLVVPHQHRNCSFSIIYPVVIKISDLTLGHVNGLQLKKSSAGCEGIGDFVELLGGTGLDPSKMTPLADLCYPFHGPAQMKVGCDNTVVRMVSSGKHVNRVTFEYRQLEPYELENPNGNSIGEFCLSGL

[3] = biological target: T1, Corticotropin-releasing factor receptor 2/Corticotropin-releasing factor-binding protein; assay: activators of CRF receptor 2 with binding protein – uHTS hits, confirmation (AID 602473); assay type: functional; settings: read-out: EC50_Mean
Protein Tat = biological target: T2, Protein Tat (Human immunodeficiency virus type 1 group M subtype B (isolate HXB2)(HIV-1), UniProt P04608); assay type: functional;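 note: tat binding to TAR RNA read out by fluorescence polarization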
T2 sequence (P04608 whole entry): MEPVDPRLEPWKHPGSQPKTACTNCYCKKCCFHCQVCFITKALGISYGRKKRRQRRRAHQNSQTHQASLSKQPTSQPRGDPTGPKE

[4] = biological target: T3, Polyadenylate-binding protein 1 (Homo sapiens, UniProt P11940); assay: PABP1 MLLE–PAM2 binding inhibitor potency, dose response, biochemical, fluorescence polarization, FITC-PAM2 peptide (AID 602259); assay type: functional; settings: read-out: IC50_Mean
T3 sequence (P11940 whole entry): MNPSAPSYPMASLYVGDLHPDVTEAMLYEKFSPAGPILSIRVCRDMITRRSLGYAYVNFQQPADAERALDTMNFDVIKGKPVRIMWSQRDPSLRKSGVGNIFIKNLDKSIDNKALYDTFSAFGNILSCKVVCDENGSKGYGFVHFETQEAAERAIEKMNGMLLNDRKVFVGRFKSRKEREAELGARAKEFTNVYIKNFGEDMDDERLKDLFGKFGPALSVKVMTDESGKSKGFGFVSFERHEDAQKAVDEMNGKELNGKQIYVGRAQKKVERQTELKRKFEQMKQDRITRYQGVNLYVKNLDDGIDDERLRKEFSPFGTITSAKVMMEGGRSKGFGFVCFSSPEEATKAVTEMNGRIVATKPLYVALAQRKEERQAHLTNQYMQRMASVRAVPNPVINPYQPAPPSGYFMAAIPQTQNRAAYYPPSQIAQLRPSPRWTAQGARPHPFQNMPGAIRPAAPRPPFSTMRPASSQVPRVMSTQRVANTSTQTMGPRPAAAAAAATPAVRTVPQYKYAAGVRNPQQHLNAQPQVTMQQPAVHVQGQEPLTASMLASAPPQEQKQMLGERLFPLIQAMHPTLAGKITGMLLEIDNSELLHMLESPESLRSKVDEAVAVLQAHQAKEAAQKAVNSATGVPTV

[5] = biological target: T3, Polyadenylate-binding protein 1; assay: PABP1 MLLE–PAM2 interaction inhibitors, dose response, miRNA deadenylation inhibitor project, biochemical, fluorescence polarization, Cy5-PAM2 peptide, secondary (AID 602260); assay type: functional; settings: read-out: IC50_Mean
[6] = biological target: T4, Hepatocyte nuclear factor 4-alpha (Homo sapiens, UniProt P41235); assay type: functional, cell-based;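 note: biochemical luminescence-based dose-response counterscreen measuring inhibition of HNF4 dimerization, run alongside a screen for blockers of ABHD5–perilipin-5 interaction; split luciferase complementation of HNF4 fusion proteins in cell lysate measuring dimerization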
T4 sequence (P41235 whole entry): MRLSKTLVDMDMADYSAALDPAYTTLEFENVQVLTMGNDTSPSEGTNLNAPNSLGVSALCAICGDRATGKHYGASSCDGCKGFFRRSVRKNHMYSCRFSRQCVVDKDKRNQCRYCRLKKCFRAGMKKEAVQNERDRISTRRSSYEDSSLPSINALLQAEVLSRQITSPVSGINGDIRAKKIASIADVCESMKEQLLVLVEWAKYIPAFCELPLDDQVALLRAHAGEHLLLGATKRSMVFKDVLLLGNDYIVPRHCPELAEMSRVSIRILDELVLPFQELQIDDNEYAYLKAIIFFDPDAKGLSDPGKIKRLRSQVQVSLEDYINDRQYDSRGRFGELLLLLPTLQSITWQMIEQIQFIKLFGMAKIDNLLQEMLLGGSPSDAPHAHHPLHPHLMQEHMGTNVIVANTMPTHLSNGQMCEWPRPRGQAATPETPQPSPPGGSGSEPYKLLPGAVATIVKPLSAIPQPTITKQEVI

[7] = THP-1 cell cytotoxicity, dose response, cytotoxicity control for Vif-APOBEC3G degradation inhibitor project, THP-1 cells (AID 1117359); assay type: functional; settings: Human immunodeficiency virus 1, THP-1
[8] = inhibitors of PGC1a acetylation in cells, dose response, cell-based, cherry-picked samples (AID 720514); assay type: functional;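 note: potency may reflect raised or lowered acetylation signal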
[9] = HEK293 cell cytotoxicity, dose response, cytotoxicity control, plate reader, cherry-picked samples (AID 743446); assay type: functional, cell-based
[10] = A549 cell cytotoxicity, dose response, cytotoxicity control, plate reader, cherry-pick, antagonist series (AID 743412); assay type: functional, cell-based
[11] = growth suppression of PTEN-null colon cells, dose response, cell-based, HCT116 PTEN knockout (AID 1047); assay type: functional;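 note: HCT116 colon tumor cells with PTEN knocked out; cells exposed to compound for 60 hours before readout; potency for loss of cell viability measured by luminescence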
[12] = biological target: Photoreceptor-specific nuclear receptor (Homo sapiens, UniProt Q9Y5X4); assay type: functional, cell-based;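 note: CHO-S cells with Gal4-NCOR and VP16-NR2E3 two-hybrid luciferase reporter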
Sequence of Photoreceptor-specific nuclear receptor (Q9Y5X4 whole entry, the tested form may be a part): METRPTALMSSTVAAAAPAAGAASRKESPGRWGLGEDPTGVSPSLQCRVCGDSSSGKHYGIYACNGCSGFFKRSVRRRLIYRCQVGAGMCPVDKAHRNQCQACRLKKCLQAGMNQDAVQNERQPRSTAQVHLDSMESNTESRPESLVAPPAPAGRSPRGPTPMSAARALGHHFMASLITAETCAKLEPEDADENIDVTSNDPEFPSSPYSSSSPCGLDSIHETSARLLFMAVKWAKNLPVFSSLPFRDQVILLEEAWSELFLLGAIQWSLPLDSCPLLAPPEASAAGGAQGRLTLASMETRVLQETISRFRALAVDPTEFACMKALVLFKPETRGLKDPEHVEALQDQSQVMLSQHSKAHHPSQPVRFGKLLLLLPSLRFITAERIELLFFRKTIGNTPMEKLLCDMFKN

[13] = MC4R antagonists, dose response, counter-screen for LGR2 antagonist project, cell-based, plate reader, cherry pick (AID 743444); assay type: functional;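 note: transfected HEK 293 cells stimulated with alpha-MSH peptide; potency of inhibitors of the alpha-MSH evoked signal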
[14] = growth suppression of beta-catenin-knockout colon cells, dose response, cell-based, HCT116, human colon tumor (AID 1045); assay type: functional;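 note: HCT116 colon tumor cells with beta catenin knocked out; cells exposed to compound for 60 hours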
[15] = LGR2 antagonists, dose response, cell-based, HEK293, CRE-luciferase reporter, cherry pick, set 2 (AID 743343); assay type: functional;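 note: transfected cells were stimulated with diluted bursicon conditioned medium after compound addition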
Cytochrome P450 1A2 = biological target: T5, Cytochrome P450 1A2 (Homo sapiens, UniProt P05177);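 note: PubChem cytochrome P450 panel assay, CYP1A2 panel member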
T5 sequence (P05177 whole entry): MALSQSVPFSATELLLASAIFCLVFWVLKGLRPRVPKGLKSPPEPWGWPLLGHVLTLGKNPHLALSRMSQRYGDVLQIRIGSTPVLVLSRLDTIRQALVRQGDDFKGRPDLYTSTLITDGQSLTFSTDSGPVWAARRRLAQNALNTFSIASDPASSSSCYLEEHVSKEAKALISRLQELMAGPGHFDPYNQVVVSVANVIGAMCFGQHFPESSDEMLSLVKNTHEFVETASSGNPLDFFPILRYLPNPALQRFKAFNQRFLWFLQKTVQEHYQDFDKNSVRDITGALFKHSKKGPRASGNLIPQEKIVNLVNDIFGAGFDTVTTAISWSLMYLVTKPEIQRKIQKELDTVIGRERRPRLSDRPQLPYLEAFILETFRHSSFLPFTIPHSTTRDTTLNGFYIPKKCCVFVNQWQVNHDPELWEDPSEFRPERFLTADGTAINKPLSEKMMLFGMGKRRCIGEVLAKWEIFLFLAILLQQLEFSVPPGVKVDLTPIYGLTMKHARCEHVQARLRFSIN

Sequence of Kallikrein-7 (P49862 whole entry): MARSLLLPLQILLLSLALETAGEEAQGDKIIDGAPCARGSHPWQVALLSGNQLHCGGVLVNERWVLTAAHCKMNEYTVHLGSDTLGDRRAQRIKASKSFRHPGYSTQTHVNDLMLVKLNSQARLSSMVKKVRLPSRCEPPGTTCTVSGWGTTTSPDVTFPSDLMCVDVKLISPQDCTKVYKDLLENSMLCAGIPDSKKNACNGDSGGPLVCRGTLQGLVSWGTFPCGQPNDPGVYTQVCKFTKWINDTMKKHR

For `Cc1cc(N2CCCC2)nc2ccc(NC(=S)NCCCOC(C)C)cc12`, the EC50 (Kallikrein-7) was > 69.5 µM (inactive).

With `Cc1cccc(C)c1NC(=O)C(c1ccccc1)N1CC(=O)Nc2ccccc21` (configuration not stated) the EC50 (Kallikrein-7) was > 69.5 µM (inactive).

For `Cc1ccc(S(=O)(=O)N(CC(=O)Nc2ccccc2C(=O)O)c2ccc(Cl)cc2)cc1`, the IC50 [1] was 14.4 µM (active), the IC50 [2] was 10.3 µM (active) and the EC50 [3] was > 53 µM (inactive).

In the case of `O=C(c1cc2n(n1)C(C(F)(F)F)CC(c1ccco1)N2)N1CCc2ccccc2C1` (configuration not stated), the IC50 (Protein Tat) is reported as > 100 µM (active).

With `CC(C)CCN1CCN(Cc2cccn2-c2cccnc2)CC1CCO` (configuration not stated) the IC50 (Protein Tat) was > 100 µM (active).

For `CCOC1=CC2=C(C(=O)C(Cl)=CC2=O)[C@@H]2CN(S(=O)(=O)c3ccc(C)cc3)[C@@H](c3ccccc3)[C@H]12`, the IC50 [4] was > 66 µM (inactive), the IC50 [5] was > 66 µM (inactive) and the IC50 [6] was 0.814 µM (active).

For `COc1cc(C)c(C2NC(=O)c3ccccc3N2)cc1C` (configuration not stated), the CC50 [7] was 2.86 µM (active).

In the case of `Cc1cccc(C)c1NC(=O)C(c1ccnc2ccccc12)n1c(=O)c(-c2ccco2)nc2ccccc21` (configuration not stated), the IC50 [6] is reported as 3.64 µM (active).

For `O=C1C=CCCN1C(=O)/C=C/c1ccccc1Cl`, the AC50 [8] was 0.617 µM (active).

With `Cc1ccc(C#N)c(SCc2nnc(-c3ccc(Cl)cc3)o2)n1` the AC50 [9] was > 52 µM (inactive), the AC50 [10] was 30.9 µM (active) and the EC50 [11] was 8.1 µM (active). The IC50 [12] was 1.47 µM (active), the AC50 [13] was 0.209 µM (active) and the EC50 [14] was 15.7 µM (active). The AC50 [15] was 0.181 µM (active).

In the case of `CCN(CC)CCOCCOC(=O)C1(c2ccccc2)CCCC1` [CARBETAPENTANE CITRATE], the AC50 (Cytochrome P450 1A2) is reported as 12.6 µM (inconclusive) and the IC50 [6] is reported as 10.9 µM (inactive).
